# Data taken from ChEMBL document CHEMBL1201862, “PubChem BioAssay data set” (2004).
# The source made the active and inactive calls.
# Columns and labels:
# [1] = target: T1, Orexin/Hypocretin receptor type 1 (Homo sapiens, UniProt O43613); experiment: Homogeneous Time Resolved Fluorescence (HTRF)-based cell-based high throughput dose response assay for antagonists of the orexin 1 receptor (OX1R; HCRTR1). [Related pubchem assays (depositor defined):AID434989, AID435008, AID463079, AID485270, AID492963, AID492964, AID492965, AID493232, AID504717, AID504718]; assay type: functional
# Orexin receptor type 2 [2] = target: T2, Orexin receptor type 2 (Homo sapiens, UniProt O43614); experiment: Counterscreen assay for antagonists of the orexin 1 receptor (OX1R; HCRTR1): Homogeneous Time Resolved Fluorescence (HTRF)-based cell-based dose response assay for antagonists of the orexin 2 receptor (OX2R; HCRTR2), run by assay provider.; assay type: functional
# CHO-K1 = experiment: (§1) Counterscreen for antagonists of the orexin 1 receptor (OX1R; HCRTR1): Homogeneous time resolved fluorescence (HTRF)-based cell-based dose response assay to identify antagonists of the parental CHO-K1 cell line. [Related pubchem assays (depositor defined):AID434989, AID435008, AID463079, AID485270, AID492963, AID492964, AID492965, AID493232, AID504699, AID504701]; assay type: functional; details: Cricetulus griseus
# [3] = Luminescence Cell-Based Dose Retest to Confirm Inhibitors of Cancer Stem Cells. [Related pubchem assays (depositor defined):AID2717, AID2721]; assay type: functional; details: Homo sapiens
# Orexin receptor type 2 [4] = target: T2, Orexin receptor type 2; experiment: Counterscreen assay for antagonists of the orexin 1 receptor (OX1R; HCRTR1): Fluorescence-based cell-based dose response assay for antagonists of the orexin 2 receptor (OX2R; HCRTR2), run by assay provider.; assay type: functional
# [5] = as §1, with “Fluorescence-based” for “Homogeneous time resolved fluorescence (HTRF)-based”, “cell-based high throughput” for “cell-based”, “CHO” for “CHO-K1”; assay type: functional
# [6] = target: T1, Orexin/Hypocretin receptor type 1; experiment: Fluorescence-based cell-based high throughput dose response assay for antagonists of the orexin 1 receptor (OX1R; HCRTR1). [Related pubchem assays (depositor defined):AID434989, AID435008, AID463079, AID485270, AID492963, AID492964, AID492965, AID493232, AID504717, AID504718]; assay type: functional
# [7] = inhibitors of firefly luciferase expression or activity, dose response, H4 neuroglioma cells, luminescence (AID 1990); assay type: functional, cell-based
# BJ [8] = experiment: cytotoxicity toward Ras-transformed BJeLR fibroblasts, dose response, cell-based, alamar blue fluorescence, cherrypicked samples (AID 2631); assay type: functional; details: Homo sapiens;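 further: confirmatory dose-response assay in RAS-dependent BJ fibroblasts engineered with TERT, LT and ST, with cytotoxicity read by fluorescence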
# [9] = miR-122 activators in hepatoma reporter cells, dose response, cell-based, Huh7 psiCHECK-miR122, Renilla luciferase, cherry-picked (AID 651956); assay type: functional;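 further: huh7 hepatoma cells stably carrying a psiCHECK-2 miR-122 sensor plasmid; renilla luciferase signal reporting endogenous miR-122 activity after 48 h compound exposure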
# [10] = Luminescence Cell-Based Dose Response HTS to Identify Inhibitors of 5'UTR Stem-Loop Driven Prion Protein mRNA Translation in H4 Neuroglioblastoma Cells. [Related pubchem assays: 1827 (Project Summary), 1813 (Primary HTS)]; assay type: functional
# INS1 = experiment: beta cell apoptosis inhibitors, cytokine rescue, dose response, luminescence, retest (AID 449756); assay type: functional, cell-based; details: Rattus norvegicus;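 further: cell death triggered by IL-1 beta plus TNF-alpha plus IFN-gamma mixture; protective hits raise ATP signal compared with cytokine alone wells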
# [11] = HEK293T cytotoxicity, dose response, cytotoxicity control for miR-122 modulator project, cell-based, inhibitor set, cherry-pick, set 2 (AID 720697); assay type: functional
# [12] = HEK293T cytotoxicity, dose response, cytotoxicity control for miR-122 modulator project, cell-based, activator set, cherry-pick (AID 720690); assay type: functional;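 further: HEK293T human cells scored for general mammalian cytotoxicity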
# [13] = control 3'UTR Renilla luciferase suppression, dose response, counter-screen for Shn3 inhibitor project, cell-based, Clone20-Shn3RL, cherry-picked (AID 624133); assay type: functional
# [14] = cytotoxicity toward DRD oncogenic fibroblasts, dose response, cell-based, non-viral oncogenic, luminescence (AID 1934); assay type: functional; details: Homo sapiens
# [15] = target: T3, High affinity choline transporter 1 (Homo sapiens, UniProt Q9GZV3); experiment: CHT activators, dose response, cell-based, 10-point CRC, membrane potential dye (AID 602376); assay type: functional
# T3 sequence (Q9GZV3 whole entry): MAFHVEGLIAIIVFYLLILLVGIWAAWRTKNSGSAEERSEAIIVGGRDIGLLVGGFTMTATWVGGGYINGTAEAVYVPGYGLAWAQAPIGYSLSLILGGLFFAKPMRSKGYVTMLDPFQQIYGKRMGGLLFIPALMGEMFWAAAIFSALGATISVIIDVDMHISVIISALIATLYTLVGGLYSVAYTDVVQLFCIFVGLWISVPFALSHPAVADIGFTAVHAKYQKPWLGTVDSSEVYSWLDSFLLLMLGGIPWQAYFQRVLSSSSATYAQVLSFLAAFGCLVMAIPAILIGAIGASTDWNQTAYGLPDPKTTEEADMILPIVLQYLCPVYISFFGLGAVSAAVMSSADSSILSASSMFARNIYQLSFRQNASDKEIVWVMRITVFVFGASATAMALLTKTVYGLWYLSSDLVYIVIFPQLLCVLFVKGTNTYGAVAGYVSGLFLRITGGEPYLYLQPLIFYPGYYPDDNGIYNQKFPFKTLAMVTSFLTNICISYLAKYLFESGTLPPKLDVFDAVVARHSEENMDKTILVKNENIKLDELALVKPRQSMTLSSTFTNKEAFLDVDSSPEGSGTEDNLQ
# [16] = inhibitors of SNCA 5'UTR-driven reporter translation, confirmation, H4 neuroglioma cells, luminescence (AID 1988); assay type: functional, cell-based
# [17] = HepG2 cell cytotoxicity, dose response, cytotoxicity control for Shn3 inhibitor project, CellTiter-Glo, cherry-picked (AID 624134); assay type: functional, cell-based
# [18] = Shn3 3'UTR reporter inhibitors, dose response, cell-based, Clone20 osteoblasts, firefly luciferase, cherry-picked (AID 624132); assay type: functional;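 further: firefly luciferase luminescence from reporter carrying the Shn3 3'UTR in osteoblasts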
# BJ [19] = experiment: cytotoxicity toward BJ-TERT-LT-ST fibroblasts, dose response, cell-based, RAS-independent, luminescence (AID 1935); assay type: functional; details: Homo sapiens;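 further: BJ fibroblasts immortalized with TERT plus LT and ST oncogenes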
# BJ [20] = experiment: cytotoxicity toward BJ-TERT fibroblasts, dose response, cell-based, RAS-independent, luminescence (AID 1933); assay type: functional; details: Homo sapiens
# [21] = Luminescence-based dose response cell-based high throughput screening assay for cytotoxic compounds using the IEC-6 intestinal epithelial cell line. [Related pubchem assays: 1858 (Summary AID.), 1825 (Counterscreen.), 1907 (Confirmation screen.)]; assay type: functional
# [22] = inhibitors of PGC1a acetylation in cells, dose response, cell-based, cherry-picked samples (AID 720514); assay type: functional;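 further: potency may reflect raised or lowered acetylation signal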
# BJ [23] = experiment: cells; assay type: functional, cell-based; details: Homo sapiens
# [24] = target: Melanin-concentrating hormone receptor 1 (Homo sapiens, UniProt Q99705); experiment: Late-stage fluorescence-based counterscreen for antagonists of the G-protein coupled receptor 7 (GPR7): cell-based dose response assay to identify antagonists of the melanin-concentrating hormone receptor 1 (MCHR1) Set 5.; assay type: functional
# [25] = target: Neuropeptides B/W receptor type 1 (Homo sapiens, UniProt P48145); experiment: GPR7 antagonist potency, late-stage follow-up, cell-based, fluorescence, dose response, set 5 (AID 588566); assay type: functional
# [26] = target: Induced myeloid leukemia cell differentiation protein Mcl-1 (Homo sapiens, UniProt Q07820); assay type: functional
# Large T antigen = Large T antigen (Simian virus 40, UniProt P03070); assay type: functional, Betapolyomavirus macacae;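 further: Confirmatory-stage PubChem screen for compounds that inhibit SV40 T antigen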
# [27] = target: 72 kDa type IV collagenase (Homo sapiens, UniProt P08253); experiment: Dose Response validation of uHTS RPN11 inhibitor hits using a MMP-2 Fluorescence assay.; assay type: functional
# [28] = target: 26S proteasome non-ATPase regulatory subunit 14 (Homo sapiens, UniProt O00487); experiment: inhibition of proteasome subunit RPN11 – biochemical, fluorescence polarization, uHTS hits, confirmation (AID 602368); assay type: functional
# Prothrombin = Prothrombin (Bos taurus, UniProt P00735); experiment: thrombin inhibition, dose response, biochemical, fluorescence polarization, uHTS hits (AID 602369); assay type: functional
# [29] = inhibition of K1F phage lysis, E. coli UTI89, bacterial capsule biogenesis inhibitors, alamar blue (AID 488966); assay type: functional
# Genome polyprotein = Genome polyprotein (Hepatitis C virus, UniProt Q2Q167); experiment: HCV core protein dimerization inhibitors, dose response, biochemical, TR-FRET (AID 2159); parameters: species or system Hepacivirus hominis;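 further: blocks dimerization of HCV core protein measured by TR-FRET between tagged core106 pairs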
# [30] = target: Rho-associated protein kinase 2 (Homo sapiens, UniProt O75116); assay type: functional
# [31] = target: Mitogen-activated protein kinase 13 (Homo sapiens, UniProt O15264); assay type: functional
# Chain of Mitogen-activated protein kinase 13 (O15264 whole entry): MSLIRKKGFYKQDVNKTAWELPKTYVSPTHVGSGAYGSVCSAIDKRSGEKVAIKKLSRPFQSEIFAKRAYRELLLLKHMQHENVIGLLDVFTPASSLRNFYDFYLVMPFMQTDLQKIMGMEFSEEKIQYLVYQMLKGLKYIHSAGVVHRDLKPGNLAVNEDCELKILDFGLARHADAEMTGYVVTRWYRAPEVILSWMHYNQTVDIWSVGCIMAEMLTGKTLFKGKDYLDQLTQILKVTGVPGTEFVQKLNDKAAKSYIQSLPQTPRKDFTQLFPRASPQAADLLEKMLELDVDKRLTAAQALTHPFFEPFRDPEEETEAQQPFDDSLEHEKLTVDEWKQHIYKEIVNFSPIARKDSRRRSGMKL
# T1 sequence (O43613 whole entry): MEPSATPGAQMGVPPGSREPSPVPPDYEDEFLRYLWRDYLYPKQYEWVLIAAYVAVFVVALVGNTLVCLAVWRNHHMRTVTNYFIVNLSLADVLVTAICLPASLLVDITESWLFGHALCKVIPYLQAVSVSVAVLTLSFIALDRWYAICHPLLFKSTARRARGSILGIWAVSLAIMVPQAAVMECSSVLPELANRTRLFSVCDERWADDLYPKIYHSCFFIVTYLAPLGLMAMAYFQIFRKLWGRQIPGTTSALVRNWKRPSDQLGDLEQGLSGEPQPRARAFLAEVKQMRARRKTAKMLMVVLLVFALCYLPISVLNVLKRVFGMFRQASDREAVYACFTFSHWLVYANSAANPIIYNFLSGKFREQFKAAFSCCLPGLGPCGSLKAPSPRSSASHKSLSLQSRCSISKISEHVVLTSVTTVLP
# T2 sequence (O43614 whole entry): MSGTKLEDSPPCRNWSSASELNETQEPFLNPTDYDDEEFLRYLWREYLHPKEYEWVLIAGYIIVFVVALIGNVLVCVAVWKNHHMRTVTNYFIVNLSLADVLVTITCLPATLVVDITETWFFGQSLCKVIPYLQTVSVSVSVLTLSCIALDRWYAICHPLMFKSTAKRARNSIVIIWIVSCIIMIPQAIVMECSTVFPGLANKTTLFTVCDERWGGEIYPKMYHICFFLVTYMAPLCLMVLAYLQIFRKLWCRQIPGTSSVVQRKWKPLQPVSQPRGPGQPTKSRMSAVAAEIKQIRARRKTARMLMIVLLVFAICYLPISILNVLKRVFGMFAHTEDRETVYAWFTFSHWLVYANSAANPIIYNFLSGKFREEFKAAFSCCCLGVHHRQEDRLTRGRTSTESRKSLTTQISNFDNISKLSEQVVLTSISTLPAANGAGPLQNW
# Chain of Induced myeloid leukemia cell differentiation protein Mcl-1 (Q07820 whole entry): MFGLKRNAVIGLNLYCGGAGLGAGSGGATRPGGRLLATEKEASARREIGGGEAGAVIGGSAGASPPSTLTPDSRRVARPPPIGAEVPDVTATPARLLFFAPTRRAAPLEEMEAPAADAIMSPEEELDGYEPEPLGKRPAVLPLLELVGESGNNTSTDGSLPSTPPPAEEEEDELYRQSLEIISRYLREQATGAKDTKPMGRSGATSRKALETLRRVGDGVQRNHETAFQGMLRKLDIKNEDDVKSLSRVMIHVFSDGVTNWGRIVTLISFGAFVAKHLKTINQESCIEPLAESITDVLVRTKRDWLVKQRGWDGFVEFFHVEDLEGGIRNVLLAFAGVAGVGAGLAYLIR
# Chain of Rho-associated protein kinase 2 (O75116 whole entry): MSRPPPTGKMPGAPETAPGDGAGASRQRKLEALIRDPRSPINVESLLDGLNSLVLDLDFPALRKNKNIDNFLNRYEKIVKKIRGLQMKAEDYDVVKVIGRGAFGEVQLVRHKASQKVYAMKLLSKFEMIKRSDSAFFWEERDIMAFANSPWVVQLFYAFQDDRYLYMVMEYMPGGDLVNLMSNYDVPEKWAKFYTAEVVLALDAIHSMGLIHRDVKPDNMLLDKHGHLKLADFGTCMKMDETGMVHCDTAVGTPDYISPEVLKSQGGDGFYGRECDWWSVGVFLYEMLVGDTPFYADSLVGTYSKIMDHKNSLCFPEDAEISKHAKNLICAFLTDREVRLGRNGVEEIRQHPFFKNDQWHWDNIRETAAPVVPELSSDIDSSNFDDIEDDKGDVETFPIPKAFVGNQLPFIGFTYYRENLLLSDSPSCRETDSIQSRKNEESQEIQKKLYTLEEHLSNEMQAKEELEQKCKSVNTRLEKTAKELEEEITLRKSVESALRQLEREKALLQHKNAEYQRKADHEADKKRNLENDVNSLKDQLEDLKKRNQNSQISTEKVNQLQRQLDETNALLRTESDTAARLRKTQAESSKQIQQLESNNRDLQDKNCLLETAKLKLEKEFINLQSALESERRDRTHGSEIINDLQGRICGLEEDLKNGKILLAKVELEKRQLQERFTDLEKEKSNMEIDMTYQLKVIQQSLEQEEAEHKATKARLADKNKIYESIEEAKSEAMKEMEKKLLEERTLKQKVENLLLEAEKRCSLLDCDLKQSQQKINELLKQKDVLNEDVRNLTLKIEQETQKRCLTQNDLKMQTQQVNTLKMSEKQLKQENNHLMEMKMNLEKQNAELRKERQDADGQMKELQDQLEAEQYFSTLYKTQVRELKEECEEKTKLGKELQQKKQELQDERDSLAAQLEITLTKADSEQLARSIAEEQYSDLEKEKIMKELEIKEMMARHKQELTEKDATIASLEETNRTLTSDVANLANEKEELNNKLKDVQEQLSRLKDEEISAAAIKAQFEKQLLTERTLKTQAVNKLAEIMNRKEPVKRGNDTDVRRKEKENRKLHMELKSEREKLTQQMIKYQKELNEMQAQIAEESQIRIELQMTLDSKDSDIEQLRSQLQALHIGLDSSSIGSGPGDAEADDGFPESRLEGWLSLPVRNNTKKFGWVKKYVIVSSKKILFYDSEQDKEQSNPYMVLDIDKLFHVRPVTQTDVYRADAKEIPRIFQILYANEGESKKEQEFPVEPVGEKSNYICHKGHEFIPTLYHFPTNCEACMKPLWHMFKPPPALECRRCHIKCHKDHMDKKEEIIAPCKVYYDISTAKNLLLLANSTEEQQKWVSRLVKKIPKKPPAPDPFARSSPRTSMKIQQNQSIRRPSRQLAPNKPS
# Chain of Large T antigen (P03070 whole entry): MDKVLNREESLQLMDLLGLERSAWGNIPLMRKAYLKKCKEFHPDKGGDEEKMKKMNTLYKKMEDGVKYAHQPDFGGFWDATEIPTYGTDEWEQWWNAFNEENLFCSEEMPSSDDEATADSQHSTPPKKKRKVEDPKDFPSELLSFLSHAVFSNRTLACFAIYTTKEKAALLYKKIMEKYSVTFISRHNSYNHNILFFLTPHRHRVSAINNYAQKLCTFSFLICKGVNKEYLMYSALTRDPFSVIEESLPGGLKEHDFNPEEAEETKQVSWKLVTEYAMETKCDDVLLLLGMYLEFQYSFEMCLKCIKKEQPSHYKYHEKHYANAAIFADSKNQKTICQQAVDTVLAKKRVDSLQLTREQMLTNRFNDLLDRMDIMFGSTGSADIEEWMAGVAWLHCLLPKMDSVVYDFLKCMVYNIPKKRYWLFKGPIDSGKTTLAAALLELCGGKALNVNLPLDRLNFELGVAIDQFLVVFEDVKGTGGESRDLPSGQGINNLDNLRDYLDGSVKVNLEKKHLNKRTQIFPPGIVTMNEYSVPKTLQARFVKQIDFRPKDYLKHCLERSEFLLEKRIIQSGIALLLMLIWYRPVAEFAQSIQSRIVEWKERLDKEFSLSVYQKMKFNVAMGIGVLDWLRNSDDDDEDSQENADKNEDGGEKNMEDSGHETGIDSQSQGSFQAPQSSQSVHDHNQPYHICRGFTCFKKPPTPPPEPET
# Chain of 26S proteasome non-ATPase regulatory subunit 14 (O00487 whole entry): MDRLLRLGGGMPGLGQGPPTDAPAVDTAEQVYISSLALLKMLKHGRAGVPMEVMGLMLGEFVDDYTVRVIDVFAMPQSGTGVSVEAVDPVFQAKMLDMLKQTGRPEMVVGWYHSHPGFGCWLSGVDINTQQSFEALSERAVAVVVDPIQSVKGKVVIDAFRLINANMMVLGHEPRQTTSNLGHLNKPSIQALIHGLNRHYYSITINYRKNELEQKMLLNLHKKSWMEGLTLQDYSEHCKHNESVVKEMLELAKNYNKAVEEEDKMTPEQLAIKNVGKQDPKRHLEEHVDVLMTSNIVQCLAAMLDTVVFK
# Chain of 72 kDa type IV collagenase (P08253 whole entry): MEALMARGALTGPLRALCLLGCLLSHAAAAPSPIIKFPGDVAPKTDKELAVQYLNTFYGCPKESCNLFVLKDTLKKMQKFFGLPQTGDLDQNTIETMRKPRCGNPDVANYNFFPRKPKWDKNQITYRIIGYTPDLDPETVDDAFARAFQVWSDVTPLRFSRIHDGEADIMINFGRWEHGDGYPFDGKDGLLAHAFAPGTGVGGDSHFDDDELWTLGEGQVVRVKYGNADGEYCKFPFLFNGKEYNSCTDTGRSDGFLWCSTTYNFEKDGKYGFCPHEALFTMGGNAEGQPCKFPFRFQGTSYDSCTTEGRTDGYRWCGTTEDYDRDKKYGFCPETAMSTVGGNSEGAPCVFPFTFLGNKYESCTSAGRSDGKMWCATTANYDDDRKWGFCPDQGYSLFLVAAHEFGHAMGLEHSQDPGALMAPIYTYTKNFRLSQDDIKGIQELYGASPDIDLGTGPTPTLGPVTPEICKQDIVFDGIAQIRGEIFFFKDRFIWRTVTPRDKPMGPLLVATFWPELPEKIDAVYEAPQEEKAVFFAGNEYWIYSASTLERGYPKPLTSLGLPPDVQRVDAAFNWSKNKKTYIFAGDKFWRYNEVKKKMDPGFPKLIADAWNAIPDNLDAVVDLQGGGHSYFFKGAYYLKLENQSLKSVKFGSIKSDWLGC
# Chain of Melanin-concentrating hormone receptor 1 (Q99705 whole entry): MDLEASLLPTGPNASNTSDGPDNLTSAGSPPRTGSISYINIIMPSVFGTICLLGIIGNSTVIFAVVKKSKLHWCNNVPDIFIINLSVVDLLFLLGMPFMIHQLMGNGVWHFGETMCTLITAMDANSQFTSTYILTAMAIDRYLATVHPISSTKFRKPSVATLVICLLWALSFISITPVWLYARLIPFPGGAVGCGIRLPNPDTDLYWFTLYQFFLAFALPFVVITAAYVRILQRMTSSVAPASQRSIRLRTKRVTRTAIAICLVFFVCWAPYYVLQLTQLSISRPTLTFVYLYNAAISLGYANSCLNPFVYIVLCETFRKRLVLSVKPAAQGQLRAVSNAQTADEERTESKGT
smiles,measurement,setting,value
C=CCn1c2ccccc2c(=O)c2cc(C#Cc3cc(OC)cc(OC)c3)ccc21,IC50,[1],1.19 µM (active)
same,IC50,Orexin receptor type 2 [2],> 50 µM (inactive)
same,IC50,CHO-K1,> 66.2 µM (inactive)
same,AC50,[3],1.94 µM (active)
same,IC50,Orexin receptor type 2 [4],11 µM (inactive)
same,IC50,[5],> 49.8 µM (inactive)
same,IC50,[6],7.69 µM (active)
Cc1ccccc1OCC(O)CNC1CCC(NCC(O)COc2ccccc2C)CC1 (stereo unspecified),EC50,[7],> 120 µM (not active)
same,EC50,BJ [8],0.582 µM (inconclusive)
same,AC50,[9],10.4 µM (active)
same,EC50,[10],8.66 µM (active)
same,AC50,INS1,5.79 µM (active)
same,AC50,[11],6.41 µM (active)
same,AC50,[12],9.9 µM (active)
same,AC50,[13],11.8 µM (active)
same,EC50,[14],3.77 µM (active)
same,EC50,[15],19.3 µM (active)
same,EC50,[16],8.49 µM (active)
same,AC50,[17],1.89 µM (active)
same,AC50,[18],4.5 µM (active)
same,EC50,BJ [19],2.8 µM (inconclusive)
same,EC50,BJ [20],2.62 µM (inconclusive)
same,IC50,[21],2.61 µM (active)
same,AC50,[22],6.68 µM (active)
same,EC50,BJ [23],5.55 µM (active)
O=c1c(Oc2ccc(C(F)(F)F)cc2)c(Cl)cnn1Cc1cccc2ccccc12,IC50,[24],> 20 µM (inactive)
same,IC50,[25],> 20 µM (inactive)
CS(=O)(=O)c1ccc2c(c1)SC1=NC(=O)/C(=C/c3ccco3)C(=N)N12,IC50,[26],2.84 µM (active)
same,IC50,Large T antigen,> 100 µM (active)
same,IC50,[27],21.2 µM (active)
same,IC50,[28],14.4 µM (active)
same,IC50,Prothrombin,21.6 µM (active)
same,IC50,[29],> 150 µM (active)
same,IC50,Genome polyprotein,> 49.8 µM (not active)
O=C(NC(CO)Cc1ccccc1)c1ccc(-c2ccncc2)cc1 (stereo unspecified),Ki,[30],0.0398 µM (active)
same,Ki,[31],> 7.94 µM (inactive)
